# Test results reported in patent US12187713B2, “Immunomodulators, compositions and methods thereof” (Betta Pharmaceuticals Co., Ltd, priority 2019, dated 2025).
# pIC50: −log10 of the molar value.
# Biological target: PD-1/PD-L1 (Homo sapiens (Human), UniProt Q9NZQ7)
# Test: PD-1/PD-L1 Binding Assay (Alphascreen)
# Settings: numeric values
# How it was run: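 PD-1/PD-L1 binding detected by anti-6×His acceptor and streptavidin donor beads after 120 min in the dark at 25 °C. Beforehand, the two proteins were incubated 15 min at 25 °C with inhibitor at 0.015–300 nM (1% DMSO). IC50 comes from a log concentration–response curve.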
# PD-1/PD-L1, sequence (Q9NZQ7 19-238): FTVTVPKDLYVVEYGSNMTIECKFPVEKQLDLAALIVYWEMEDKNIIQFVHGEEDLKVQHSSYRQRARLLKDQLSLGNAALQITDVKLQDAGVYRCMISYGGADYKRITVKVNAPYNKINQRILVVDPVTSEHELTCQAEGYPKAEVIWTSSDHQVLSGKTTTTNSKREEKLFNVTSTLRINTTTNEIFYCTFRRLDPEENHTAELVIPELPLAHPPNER
row,SMILES,pIC50
1,"Cc1c(-c2nc3c(o2)CNC3)cccc1-c1cccc(-c2nc3cc(CN4CCC[C@H]4C(=O)O)c(OC(F)F)cc3o2)c1C [Example 202, ((6-(difluoromethoxy)-2-(3′-(5,6-dihydro-4H-pyrrolo[3,4-d]oxazol-2-yl)-2,2′-dimethyl-[1,1′-biphenyl]-3-yl)benzo[d]oxazol-5-yl)methyl)proline]",9.43
2,"Cc1c(-c2nc3c(o2)CCN(CCO)C3)cccc1-c1cccc(-c2nc3cc(CN4CCC[C@H]4C(=O)O)c(OC(F)F)cc3o2)c1C [Example 206, ((6-(difluoromethoxy)-2-(3′-(5-(2-hydroxyethyl)-4,5,6,7-tetrahydrooxazolo[4,5-c]pyridin-2-yl)-2,2′-dimethyl-[1,1′-biphenyl]-3-yl)benzo[d]oxazol-5-yl)methyl)-L-proline]",8.85
3,"COc1nc(OCc2cccc(-c3cccc(-c4nc5cc(CN6CCC[C@H]6C(=O)O)c(OC(F)F)cc5o4)c3C)c2C)nc(OC)c1CN1CCCC1 [Example 212, ((6-(difluoromethoxy)-2-(3′-(((4,6-dimethoxy-5-(pyrrolidin-1-ylmethyl)pyrimidin-2-yl)oxy)methyl)-2,2′-dimethyl-[1,1′-biphenyl]-3-yl)benzo[d]oxazol-5-yl)methyl)-L-proline]",8.08
4,"Cc1c(-c2nc3cc(CN4CCC[C@H]4C(=O)O)c(OC(F)F)cc3o2)cccc1-c1cccc(-c2ccc(CNC[C@@H]3CCC(=O)N3)cc2)c1F [Example 215, ((6-(difluoromethoxy)-2-(2′-fluoro-2-methyl-4″- (((((S)-5-oxopyrrolidin-2-yl)methyl)amino)methyl)-[1,1′:3′,1″- terphenyl]-3-yl)benzo[d]oxazol-5-yl)methyl)-L-proline]",8.55
5,"Cc1c(-c2ccc(CN3CCC(N(C)C)C3)cc2)cccc1-c1cccc(-c2nc3cc(CN4CCC[C@H]4C(=O)O)c(OC(F)F)cc3o2)c1C (stereo partly drawn) [Example 228, ((6-(difluoromethoxy)-2-(4″-((3-(dimethylamino)pyrrolidin-1-yl)methyl)-2,2′-dimethyl-[1,1′:3′,1″-terphenyl]-3-yl)benzo[d]oxazol-5-yl)methyl)-L-proline]",8.37

# Further lines, results first:
row,pIC50,SMILES
1,6.94,"Cc1c(COc2cc(OCc3cncc(OC(F)F)c3)c(CN3CC[C@@H](O)C3)cc2Cl)cccc1-c1cccc(-c2nc3cc(CN4CCC[C@H]4C(=O)O)c(OC(F)F)cc3o2)c1C [Example 208, ((2-(3′-((2-chloro-5-((5-(difluoromethoxy)pyridin-3-yl)methoxy)-4-(((R)-3-hydroxypyrrolidin-1-yl)methyl)phenoxy)methyl)-2,2′-dimethyl-[1,1′-biphenyl]-3-yl)-6-(difluoromethoxy)benzo[d]oxazol-5-yl)methyl)-L-proline]"
2,9.17,"Cc1c(-c2ccc(CNCCO)cc2)cccc1-c1cccc(-c2nc3cc(CN4CCC[C@H]4C(=O)O)c(OC(F)F)cc3o2)c1C [Example 217, ((6-(difluoromethoxy)-2-(4″-(((2-hydroxyethyl)amino)methyl)-2,2′-dimethyl-[1,1′:3′,1″-terphenyl]-3-yl)benzo[d]oxazol-5-yl)methyl)-L-proline]"
3,8.70,"Cc1c(-c2ccc(NC(=N)N)cc2)cccc1-c1cccc(-c2nc3cc(CN4CCC[C@H]4C(=O)O)c(OC(F)F)cc3o2)c1C [Example 225, ((6-(difluoromethoxy)-2-(4″-guanidino-2,2′-dimethyl-[1,1′:3,1″-terphenyl]-3-yl)benzo[d]oxazol-5-yl)methyl)-L-proline]"
4,8.33,"Cc1c(-c2ccc(CN(C)CCCN(C)C)cc2)cccc1-c1cccc(-c2nc3cc(CN4CCC[C@H]4C(=O)O)c(OC(F)F)cc3o2)c1C [Example 226, ((6-(difluoromethoxy)-2-(4″-(((3-(dimethylamino)propyl)(methyl)amino)methyl)-2,2′-dimethyl-[1,1′:3′,1″-terphenyl]-3-yl)benzo[d]oxazol-5-yl)methyl)-L-proline]"

# Same assay, conditions: range symbols
row,SMILES,pIC50
1,"Cc1c(-c2nc3c(o2)CCN(Cc2cccnc2)C3)cccc1-c1cccc(-c2nc3cc(CN4CCC[C@H]4C(=O)O)c(OC(F)F)cc3o2)c1C [Example 194, ((6-(difluoromethoxy)-2-(2,2′-dimethyl-3′-(5-(pyridin-3-ylmethyl)-4,5,6,7-tetrahydrooxazolo[4,5-c]pyridin-2-yl)-[1,1′-biphenyl]-3-yl)benzo[d]oxazol-5-yl)methyl)proline]",7.30 to 8.30
2,"Cc1c(-c2nc3c(o2)CCN(CC(N)=O)C3)cccc1-c1cccc(-c2nc3cc(CN4CCC[C@H]4C(=O)O)c(OC(F)F)cc3o2)c1C [Example 196, ((2-(3′-(5-(2-amino-2-oxoethyl)-4,5,6,7-tetrahydrooxazolo[4,5-c]pyridin-2-yl)-2,2′-dimethyl-[1,1′-biphenyl]-3-yl)-6-(difluoromethoxy)benzo[d]oxazol-5-yl)methyl)proline]",7.30 to 8.30
3,"Cc1c(-c2nc3c(o2)CCN(CCCO)C3)cccc1-c1cccc(-c2nc3cc(CN4CCC[C@H]4C(=O)O)c(OC(F)F)cc3o2)c1C [Example 199, ((6-(difluoromethoxy)-2-(3′-(5-(3-hydroxypropyl)-4,5,6,7-tetrahydrooxazolo[4,5-c]pyridin-2-yl)-2,2′-dimethyl-[1,1′-biphenyl]-3-yl)benzo[d]oxazol-5-yl)methyl)proline]",7.30 to 8.30
4,"Cc1c(-c2nc3c(o2)CCN(CCCF)C3)cccc1-c1cccc(-c2nc3cc(CN4CCC[C@H]4C(=O)O)c(OC(F)F)cc3o2)c1C [Example 200, ((6-(difluoromethoxy)-2-(3′-(5-(3-fluoropropyl)-4,5,6,7-tetrahydrooxazolo[4,5-c]pyridin-2-yl)-2,2′-dimethyl-[1,1′-biphenyl]-3-yl)benzo[d]oxazol-5-yl)methyl)proline]",7.30 to 8.30
5,"COc1nc(OCc2cccc(-c3cccc(-c4nc5cc(CN6CCC[C@H]6C(=O)O)c(OC(F)F)cc5o4)c3C)c2C)nc(OC)c1CN1CC(C)(C)C1 [Example 213, ((6-(difluoromethoxy)-2-(3′-(((5-((3,3-dimethylazetidin-1-yl)methyl)-4,6-dimethoxypyrimidin-2-yl)oxy)methyl)-2,2′-dimethyl-[1,1′-biphenyl]-3-yl)benzo[d]oxazol-5-yl)methyl)-L-proline]",7.30 to 8.30
6,"Cc1c(-c2nc3cc(CN4CCC[C@H]4C(=O)O)c(OC(F)F)cc3o2)cccc1-c1cccc(-c2ccc(CNC[C@@H]3CCC(=O)N3)c(OC(F)F)c2)c1F [Example 216, ((6-(difluoromethoxy)-2-(3″-(difluoromethoxy)-2′-fluoro-2-methyl-4″-(((((S)-5-oxopyrrolidin-2-yl)methyl)amino)methyl)-[1,1′:3′,1″- terphenyl]-3-yl)benzo[d]oxazol-5-yl)methyl)-L-proline]",8.30 to 10.00
7,"Cc1c(-c2nc3cc(CN4CCC[C@H]4C(=O)O)c(OC(F)F)cc3o2)cccc1-c1cccc(-c2ccc(CN3CCCC3)cc2F)c1C [Example 220, ((6-(difluoromethoxy)-2-(2″-fluoro-2,2′-dimethyl-4″-(pyrrolidin-1-ylmethyl)-[1,1′:3′,1″- terphenyl]-3-yl)benzo[d]oxazol-5-yl)methyl)proline]",8.30 to 10.00
8,"Cc1c(-c2nc3cc(CN4CCC[C@H]4C(=O)O)c(OC(F)F)cc3o2)cccc1-c1cccc(-c2ccc(CN3CCCC3)cc2F)c1Br [Example 221, ((2-(2′-bromo-2″-fluoro-2-methyl-4″- (pyrrolidin-1-ylmethyl)-[1,1′:3′,1″-terphenyl]-3-yl)-6-(difluoromethoxy)benzo[d]oxazol-5-yl)methyl)proline]",8.30 to 10.00
9,"Cc1c(-c2nc3cc(CN4CCC[C@H]4C(=O)O)c(OC(F)F)cc3o2)cccc1-c1cccc(-c2ccc(CN3CCCC3)cc2F)c1Cl [Example 222, ((2-(2′-chloro-2″-fluoro-2-methyl-4″- (pyrrolidin-1-ylmethyl)-[1,1′:3′,1″-terphenyl]-3-yl)-6-(difluoromethoxy)benzo[d]oxazol-5-yl)methyl)proline]",8.30 to 10.00
10,"Cc1c(-c2nc3cc(CN4CCC[C@H]4C(=O)O)c(OC(F)F)cc3o2)cccc1-c1cccc(-c2ccc(CN3CCCC3)cc2F)c1Cl [Example 223, ((2-(2′-chloro-2″-fluoro-2-methyl-4″- (pyrrolidin-1-ylmethyl)-[1,1′:3′,1″-terphenyl]-3-yl)-6-(difluoromethoxy)benzo[d]oxazol-5-yl)methyl)-L-proline]",8.30 to 10.00
11,"Cc1c(-c2nc3cc(CN4CCC[C@@H]4C(=O)O)c(OC(F)F)cc3o2)cccc1-c1cccc(-c2ccc(CN3CCCC3)cc2F)c1Cl [Example 224, ((2-(2′-chloro-2″-fluoro-2-methyl-4″- (pyrrolidin-1-ylmethyl)-[1,1′:3′,1″-terphenyl]-3-yl)-6-(difluoromethoxy)benzo[d]oxazol-5-yl)methyl)-D-proline]",8.30 to 10.00

# Other lines, results leading:
row,pIC50,SMILES
1,8.30 to 10.00,CC(=O)NCCNCc1cc(Cl)c(OCc2cccc(-c3cccc(-c4nc5cc(CN6CCC[C@H]6C(=O)O)c(OC(F)F)cc5o4)c3C)c2C)cc1OCc1cccc(C#N)c1 [Example 210]
2,8.30 to 10.00,Cc1c(COc2cc(OCc3cccc(C#N)c3)c(CN3CCC[C@H]3C(=O)O)cc2Cl)cccc1-c1cccc(-c2nc3cc(CN4CCC[C@H]4C(=O)O)c(OC(F)F)cc3o2)c1C [Example 211]
3,< 7.30,"Cc1c(Oc2ccc(CNC[C@@H]3CCC(=O)N3)cn2)cccc1-c1cccc(-c2nc3cc(CN4CCC[C@H]4C(=O)O)c(OC(F)F)cc3o2)c1C [Example 214, ((6-(difluoromethoxy)-2-(2,2′-dimethyl-3′-((5-(((((S)-5-oxopyrrolidin-2-yl)methyl)amino)methyl)pyridin-2-yl)oxy)-[1,1′-biphenyl]-3-yl)benzo[d]oxazol-5-yl)methyl)-L-proline]"
4,8.30 to 10.00,"Cc1cc(-c2cccc(-c3cccc(-c4nc5cc(CN6CCC[C@H]6C(=O)O)c(OC(F)F)cc5o4)c3C)c2C)ccc1CN1CCCC1 [Example 218, ((6-(difluoromethoxy)-2-(2,2′,3″-trimethyl-4″- (pyrrolidin-1-ylmethyl)-[1,1′:3′,1″-terphenyl]-3-yl)benzo[d]oxazol-5-yl)methyl)proline]"
5,8.30 to 10.00,"Cc1c(-c2ccc(CN3CCCC3)c(Cl)c2)cccc1-c1cccc(-c2nc3cc(CN4CCC[C@H]4C(=O)O)c(OC(F)F)cc3o2)c1C [Example 219, ((2-(3″-chloro-2,2′-dimethyl-4″-(pyrrolidin-1-ylmethyl)-[1,1′:3′,1″-terphenyl]-3-yl)-6-(difluoromethoxy)benzo[d]oxazol-5-yl)methyl)proline]"
